Assay results taken from patent publication US9394228B2, “Methods of treatment using lipid compounds” (PRONOVA BIOPHARMA NORGE AS, priority 2010, dated 2016).

Columns and labels:
[1] = target: T1, PPAR[…] (positive control GW7647, i.e. PPARα) (Homo sapiens, UniProt Q07869); experiment: PPAR activation in vitro, mammalian-one-hybrid (M1H) GAL4-PPAR-LBD luciferase reporter assay; type: cell-based; details: efficacy of positive control GW7647 set to 100%; HEK293 cells; first PPAR[…] column
T1 construct: expressed in transfected cells; host or cells: HEK293
T1 sequence (Q07869 239-466 limits assumed, species assumed): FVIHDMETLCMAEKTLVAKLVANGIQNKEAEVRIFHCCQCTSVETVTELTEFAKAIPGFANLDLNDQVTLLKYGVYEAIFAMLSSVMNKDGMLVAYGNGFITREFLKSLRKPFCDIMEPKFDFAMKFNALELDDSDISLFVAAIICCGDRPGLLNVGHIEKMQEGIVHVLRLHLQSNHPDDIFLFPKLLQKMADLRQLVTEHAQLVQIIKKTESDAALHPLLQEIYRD
T1 sequence (P04386 1-147 partner limits assumed, species assumed): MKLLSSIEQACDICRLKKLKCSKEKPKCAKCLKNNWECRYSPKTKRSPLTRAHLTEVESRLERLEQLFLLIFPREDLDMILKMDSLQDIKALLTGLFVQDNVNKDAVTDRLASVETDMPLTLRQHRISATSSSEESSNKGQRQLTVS
Experimental: (§1) Compounds (A)-(C) and a positive control were tested at six different concentrations in duplicate:
(§2) The positive controls were GW7647 (PPAR[…]), GW501516 (PPAR[…]) and rosiglitazone (PPAR[…]). The efficacy of the controls were set to 100%.
(§3) Assays were carried out in vitro using mammalian-one-hybrid assays (M1H) comprising GAL4-DNA binding domain-PPAR-LBD fusion constructs in conjunction with 5×GAL4-sites driven Photinus pyralis luciferase reporter constructs in transiently transfected HEK293 cells. The cells were transfected 4-6 hours and grown overnight before compounds were added. Compound incubation was 16-20 hours. Renilla reniformis luciferase, driven by a constitutive promoter, was included as internal control to improve experimental accuracy.

[2] = target: T2, PPAR[…] (positive control GW501516, i.e. PPARδ) (Homo sapiens, UniProt Q03181); experiment: as above; type: cell-based; details: second PPAR[…] column; for Efficacy: efficacy of positive control GW501516 set to 100%, HEK293 cells; for EC50: transiently transfected HEK293 cells, compound incubation 16-20 hours
T2 construct: expressed in transfected cells; host or cells: HEK293
T2 sequence (Q03181 211-439 limits assumed): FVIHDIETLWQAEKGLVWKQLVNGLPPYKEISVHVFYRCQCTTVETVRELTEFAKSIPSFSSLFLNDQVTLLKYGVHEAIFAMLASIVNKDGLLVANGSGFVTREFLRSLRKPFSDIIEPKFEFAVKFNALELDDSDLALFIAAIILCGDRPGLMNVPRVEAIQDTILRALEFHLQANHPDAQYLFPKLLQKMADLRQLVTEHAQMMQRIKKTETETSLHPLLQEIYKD
T2 sequence (P04386 1-147 partner limits assumed): as the sequence (P04386 1-147 partner limits assumed, species assumed) above
Experimental: as §1, §2, §3

[3] = target: T3, PPAR[…] (positive control rosiglitazone, i.e. PPARγ) (Homo sapiens, UniProt P37231); experiment: as above; type: cell-based; details: efficacy of positive control rosiglitazone set to 100%; HEK293 cells; third PPAR[…] column
T3 construct: expressed in transfected cells; host or cells: HEK293
T3 sequence (P37231 238-503 limits assumed): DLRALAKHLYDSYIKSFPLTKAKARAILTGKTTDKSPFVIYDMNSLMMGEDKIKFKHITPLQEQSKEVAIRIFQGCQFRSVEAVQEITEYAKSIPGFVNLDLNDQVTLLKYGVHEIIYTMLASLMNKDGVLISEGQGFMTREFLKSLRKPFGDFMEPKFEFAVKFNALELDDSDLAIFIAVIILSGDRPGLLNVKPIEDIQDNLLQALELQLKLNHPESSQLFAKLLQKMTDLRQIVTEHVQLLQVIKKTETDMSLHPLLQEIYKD
T3 sequence (P04386 1-147 partner limits assumed): as the sequence (P04386 1-147 partner limits assumed, species assumed) above
Experimental: as §1, §2, §3

[4] = tested on: APOE*3Leiden.CETP transgenic mice; experiment: Effects on in vivo atherosclerosis development in a mouse model
Description: The APOE*3Leiden.CETP transgenic mouse has proven to be representative of the human situation with respect to plasma lipoprotein levels and its responsiveness to hypolipidemic drugs (like statins, fibrates etc.) and nutritional intervention. APOE*3Leiden.CETP mice develop atherosclerotic lesions in the aorta resembling those found in humans with respect to cellular composition and morphological and immunohistochemical characteristics.
Female APOE*3Leiden.CETP mice were put on a Western-type diet (WTD) with 0.15% cholesterol and 15% saturated fat; resulting in plasma cholesterol levels of about 13-15 mM. After a 3 week run-in period on the WTD, the mice were sub-divided into 4 groups of 15 mice, control (no treatment), Compound A of Example 2 above, fenofibrate and a low-cholesterol diet. The groups were matched for body weight, plasma total cholesterol (TC), HDL cholesterol (HDL-C) and triglycerides (TG) after 4 h fasting (t=0).
The test substances were administered orally as admix to the Western-type diet. To facilitate the mixing of the compounds sunflower oil was added to a total oil volume of 10 mL/kg diet. Compound (A) was tested at initially at 0.1 mmol/kg bw/day and reduced to 0.04 mmol/kg bw/day at 4 weeks; the initial dose was based on a prior dose-finding study to establish the required dosage that would reduce VLDL/LDL cholesterol by 25-30%. The fenofibrate dose was initially 10 mg/kg bw/day, and later reduced to 4.2 mg/kg bw/day to parallel reductions in VLDL/LDL cholesterol induced by Compound A.
At t=0 and t=17 weeks, blood samples were taken after a 4 hour-fast period to measure plasma cholesterol and triglycerides. Atherosclerosis development in aortic root (total lesion area) was measured at sacrifice.
The results for total cholesterol (mM), HDL cholesterol (mM), lesion area (μm^2*1000) and undiseased segments (%) are shown in FIGS. 4, 5, 6, and 7, respectively.

CC/C=C\C/C=C\C/C=C\C/C=C\C/C=C\CCCCOC(CC)C(=O)O (stereo not shown) [Compound A, 2-((5Z,8Z,11Z,14Z,17Z)-icosa-5,8,11,14,17-pentaenyloxy)butanoic acid]
Efficacy [1]: 82%
Efficacy [2]: inactive
EC50 [2]: inactive
Efficacy [3]: 22%
development of atherosclerosis ([4]; APOE*3Leiden.CETP transgenic mice, overall conclusion): inhibits
lesion area ([4]; aortic root, at sacrifice, as compared to control, p<0.003): significantly decreased
total cholesterol ([4]; as compared to control, p<0.001, oral admix to Western-type diet, 0.1 then 0.04 mmol/kg bw/day, t=17 weeks): significantly decreased
HDL cholesterol ([4]; as compared to control, p<0.003, oral admix to Western-type diet, 0.1 then 0.04 mmol/kg bw/day, t=17 weeks): significantly increased

CC/C=C\C/C=C\C/C=C\C/C=C\C/C=C\CCCCO[C@H](CC)C(=O)O [Compound C, (R)-2-((5Z,8Z,11Z,14Z,17Z)-icosa-5,8,11,14,17-pentaenyloxy)butanoic acid]
Efficacy [1]: 54%
Efficacy [2]: inactive
EC50 [2]: inactive
Efficacy [3]: 25%

CC/C=C\C/C=C\C/C=C\C/C=C\C/C=C\CCCCO[C@@H](CC)C(=O)O [Compound B, (S)-2-((5Z,8Z,11Z,14Z,17Z)-icosa-5,8,11,14,17-pentaenyloxy)butanoic acid]
Efficacy [1]: 86%
Efficacy [2]: inactive
EC50 [2]: inactive
Efficacy [3]: 27%
